According to PubChem BioAssay (NCI):
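Assay format: 96-well plates, 48-hour exposure. Here, GI50 denotes the concentration required for 50% inhibition of growth. The concentration for full growth arrest is given as TGI.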

How the values were obtained:
Experiment in all cases: DTP human tumour cell line panel, 48 h
MALME-3M melanoma = test system: MALME-3M melanoma
HOP-62 NSCLC = test system: HOP-62 NSCLC
NCI/ADR-RES ovarian = test system: NCI/ADR-RES ovarian
M14 melanoma = test system: M14 melanoma
IGROV1 ovarian = test system: IGROV1 ovarian
MOLT-4 leukemia = test system: MOLT-4 leukemia
OVCAR-5 ovarian = test system: OVCAR-5 ovarian
HS 578T breast = test system: HS 578T breast
CAKI-1 renal = test system: CAKI-1 renal
SF-295 CNS = test system: SF-295 CNS
UO-31 renal = test system: UO-31 renal
SK-MEL-28 melanoma = test system: SK-MEL-28 melanoma
786-0 renal = test system: 786-0 renal
UACC-257 melanoma = test system: UACC-257 melanoma
HCT-116 colon = test system: HCT-116 colon
HOP-92 NSCLC = test system: HOP-92 NSCLC
CCRF-CEM leukemia = test system: CCRF-CEM leukemia
HL-60(TB) leukemia = test system: HL-60(TB) leukemia
KM12 colon = test system: KM12 colon
HT29 colon = test system: HT29 colon
HCC-2998 colon = test system: HCC-2998 colon
UACC-62 melanoma = test system: UACC-62 melanoma
NCI-H226 lung = test system: NCI-H226 lung
U251 CNS = test system: U251 CNS
K-562 leukemia = test system: K-562 leukemia
LOX IMVI melanoma = test system: LOX IMVI melanoma
PC-3 prostate = test system: PC-3 prostate
A549 NSCLC = test system: A549 NSCLC
SN12C renal = test system: SN12C renal
SNB-19 CNS = test system: SNB-19 CNS
RPMI-8226 leukemia = test system: RPMI-8226 leukemia
NCI-H23 lung = test system: NCI-H23 lung
OVCAR-4 ovarian = test system: OVCAR-4 ovarian
COLO 205 colon = test system: COLO 205 colon
SK-MEL-5 melanoma = test system: SK-MEL-5 melanoma
HCT-15 colon = test system: HCT-15 colon
MCF7 breast = test system: MCF7 breast
BT-549 breast = test system: BT-549 breast
SF-268 CNS = test system: SF-268 CNS
T-47D breast = test system: T-47D breast
OVCAR-3 ovarian = test system: OVCAR-3 ovarian
NCI-H460 lung = test system: NCI-H460 lung
ACHN renal = test system: ACHN renal
SF-539 CNS = test system: SF-539 CNS
A498 renal = test system: A498 renal
NCI-H522 lung = test system: NCI-H522 lung
SW-620 colon = test system: SW-620 colon
MDA-MB-231 breast = test system: MDA-MB-231 breast
SK-MEL-2 melanoma = test system: SK-MEL-2 melanoma
MDA-MB-435 = test system: MDA-MB-435
TK-10 renal = test system: TK-10 renal
RXF 393 renal = test system: RXF 393 renal
SR leukemia = test system: SR leukemia
SNB-75 CNS = test system: SNB-75 CNS
SK-OV-3 ovarian = test system: SK-OV-3 ovarian
OVCAR-8 ovarian = test system: OVCAR-8 ovarian
DU-145 prostate = test system: DU-145 prostate

C=CC(=O)N1CC2(CCC(n3nc(-c4ccc(Oc5ccccc5)cc4)c4c(N)ncnc43)CC2)C1
GI50 (MALME-3M melanoma): 1500 nM | TGI (MALME-3M melanoma): 9210 nM | GI50 (HOP-62 NSCLC): 10.3 nM | TGI (HOP-62 NSCLC): 6500 nM | GI50 (NCI/ADR-RES ovarian): 1740 nM | TGI (NCI/ADR-RES ovarian): 17500 nM | GI50 (M14 melanoma): 1430 nM | TGI (M14 melanoma): 5230 nM | GI50 (IGROV1 ovarian): < 12.5 nM | TGI (IGROV1 ovarian): 462 nM | GI50 (MOLT-4 leukemia): 1930 nM | TGI (MOLT-4 leukemia): 6390 nM | GI50 (OVCAR-5 ovarian): 130 nM | TGI (OVCAR-5 ovarian): 16600 nM | GI50 (HS 578T breast): 108 nM | TGI (HS 578T breast): 1540 nM | GI50 (CAKI-1 renal): 28.3 nM | TGI (CAKI-1 renal): 709 nM | GI50 (SF-295 CNS): 2300 nM | TGI (SF-295 CNS): 15700 nM | GI50 (UO-31 renal): 46.8 nM | TGI (UO-31 renal): 1660 nM | GI50 (SK-MEL-28 melanoma): 2450 nM | TGI (SK-MEL-28 melanoma): 14000 nM | GI50 (786-0 renal): 30.4 nM | TGI (786-0 renal): 1630 nM | GI50 (UACC-257 melanoma): 1460 nM | TGI (UACC-257 melanoma): 8620 nM | GI50 (HCT-116 colon): 40.7 nM | TGI (HCT-116 colon): 1880 nM | GI50 (HOP-92 NSCLC): < 14 nM | TGI (HOP-92 NSCLC): 366 nM | GI50 (CCRF-CEM leukemia): 3650 nM | TGI (CCRF-CEM leukemia): 21900 nM | GI50 (HL-60(TB) leukemia): 3200 nM | TGI (HL-60(TB) leukemia): 10000 nM | GI50 (KM12 colon): 3020 nM | TGI (KM12 colon): 10800 nM | GI50 (HT29 colon): < 17.5 nM | TGI (HT29 colon): 1340 nM | GI50 (HCC-2998 colon): 4800 nM | TGI (HCC-2998 colon): 19600 nM | GI50 (UACC-62 melanoma): 1020 nM | TGI (UACC-62 melanoma): 4850 nM | GI50 (NCI-H226 lung): 861 nM | TGI (NCI-H226 lung): 15000 nM | GI50 (U251 CNS): 617 nM | TGI (U251 CNS): 12700 nM | GI50 (K-562 leukemia): 698 nM | TGI (K-562 leukemia): 25600 nM | GI50 (LOX IMVI melanoma): < 10.6 nM | TGI (LOX IMVI melanoma): 847 nM | GI50 (PC-3 prostate): 1090 nM | TGI (PC-3 prostate): 9200 nM | GI50 (A549 NSCLC): 1460 nM | TGI (A549 NSCLC): 9410 nM | GI50 (SN12C renal): 179 nM | TGI (SN12C renal): 10600 nM | GI50 (SNB-19 CNS): 1230 nM | TGI (SNB-19 CNS): 15700 nM | GI50 (RPMI-8226 leukemia): 1510 nM | TGI (RPMI-8226 leukemia): 5800 nM | GI50 (NCI-H23 lung): 4390 nM | TGI (NCI-H23 lung): 17300 nM | GI50 (OVCAR-4 ovarian): 1460 nM | TGI (OVCAR-4 ovarian): 14200 nM | GI50 (COLO 205 colon): 143 nM | TGI (COLO 205 colon): 1280 nM | GI50 (SK-MEL-5 melanoma): 1550 nM | TGI (SK-MEL-5 melanoma): 2970 nM | GI50 (HCT-15 colon): 200 nM | TGI (HCT-15 colon): 12100 nM | GI50 (MCF7 breast): 424 nM | TGI (MCF7 breast): 11400 nM | GI50 (BT-549 breast): 245 nM | TGI (BT-549 breast): 9780 nM | GI50 (SF-268 CNS): 255 nM | TGI (SF-268 CNS): 6040 nM | GI50 (T-47D breast): 19.7 nM | TGI (T-47D breast): 5890 nM | GI50 (OVCAR-3 ovarian): 641 nM | TGI (OVCAR-3 ovarian): 9610 nM | GI50 (NCI-H460 lung): 3430 nM | TGI (NCI-H460 lung): 16100 nM | GI50 (ACHN renal): < 12.3 nM | TGI (ACHN renal): 362 nM | GI50 (SF-539 CNS): 174 nM | TGI (SF-539 CNS): 1910 nM | GI50 (A498 renal): < 22.3 nM | GI50 (NCI-H522 lung): 67.6 nM | TGI (NCI-H522 lung): 995 nM | GI50 (SW-620 colon): 3980 nM | TGI (SW-620 colon): 21700 nM | GI50 (MDA-MB-231 breast): 281 nM | TGI (MDA-MB-231 breast): 11100 nM | GI50 (SK-MEL-2 melanoma): 1500 nM | TGI (SK-MEL-2 melanoma): 3630 nM | GI50 (MDA-MB-435): 1740 nM | TGI (MDA-MB-435): 7130 nM | GI50 (TK-10 renal): 36.2 nM | TGI (TK-10 renal): 266 nM | GI50 (RXF 393 renal): 16.8 nM | TGI (RXF 393 renal): 267 nM | GI50 (SR leukemia): 3350 nM | TGI (SR leukemia): 18900 nM | GI50 (SNB-75 CNS): < 15.1 nM | TGI (SNB-75 CNS): 174 nM | GI50 (SK-OV-3 ovarian): 52.5 nM | TGI (SK-OV-3 ovarian): 787 nM | GI50 (OVCAR-8 ovarian): 1850 nM | TGI (OVCAR-8 ovarian): 13100 nM | GI50 (DU-145 prostate): 368 nM | TGI (DU-145 prostate): 2210 nM
